Experimental data: ChEMBL document CHEMBL1129835, “Selective cytotoxicity of certain 9-substituted ellipticines for leukemia cells in a variety of leukemia cell cultures” (1997)
pEC50: −log10 of the molar value.

Columns and labels:
Type in all cases: functional
[1] = system: HL-60; test: Cytotoxicity exhibited by the compound for total growth inhibition of leukemia HL-60 (TB) cell line; details: Homo sapiens
[2] = system: U-251; test: The compound was evaluated for cytotoxicity against U251 CNS cancer cell line; details: Homo sapiens
[3] = system: MOLT-4; test: Cytotoxicity exhibited by the compound for total growth inhibition of leukemia MOLT-4 cell line; details: Homo sapiens
[4] = system: CAKI-1; test: The compound was evaluated for cytotoxicity against CAKI-1 renal cancer cell line; details: Homo sapiens
[5] = system: NCI-H322M; test: The compound was evaluated for cytotoxicity against NCI-H322M non-small cell lung cancer cell line; details: Homo sapiens
[6] = system: RXF 393; test: Effective dose to show cytotoxicity against renal cancer RXF 393 cell line was determined; details: Homo sapiens, read-out: ED50 (the source's name)
[7] = system: CAKI-1; test: Concentration for 50% cell kill against renal cancerCAKI-1 cell line was determined; details: Homo sapiens, read-out: LC50 (the source's name)
[8] = system: U-251; test: Effective dose to show cytotoxicity against CNS cancer U251 cell line was determined; details: Homo sapiens, read-out: ED50 (the source's name)
[9] = system: HL-60; test: Effective dose to show cytotoxicity against leukemia HL-60 (TB) cell line was determined; details: Homo sapiens, read-out: ED50 (the source's name)
[10] = system: CCRF-CEM; test: Effective dose to show cytotoxicity against leukemia CCRF-CEM cell line was determined; details: Homo sapiens, read-out: ED50 (the source's name)
[11] = system: RPMI-8226; test: Concentration for 50% cell kill against leukemia RPMI-8226 cell line was determined; details: Homo sapiens, read-out: LC50 (the source's name)
[12] = system: HL-60; test: Concentration for 50% cell kill against leukemia HL-60 (TB) cell line was determined; details: Homo sapiens, read-out: LC50 (the source's name)
[13] = system: IGROV-1; test: The compound was evaluated for cytotoxicity against IGROV1 ovarian cancer cell line; details: Homo sapiens
[14] = system: Malme-3M; test: Effective dose to show cytotoxicity against melanoma MALME-3M cell line was determined; details: Homo sapiens, read-out: ED50 (the source's name)
[15] = system: MDA-N; test: Effective dose to show cytotoxicity against breast cancer MDA-N cell line was determined; details: Homo sapiens, read-out: ED50 (the source's name)
[16] = system: M14; test: Cytotoxicity exhibited by the compound for total growth inhibition of melanoma M14 cell line; details: Homo sapiens
[17] = system: DU-145; test: Cytotoxicity exhibited by the compound for total growth inhibition of prostate cancer DU-145 cell line; details: Homo sapiens
[18] = system: SNB-19; test: Cytotoxicity exhibited by the compound for total growth inhibition of CNS cancer SNB-19 cell line; details: Homo sapiens
[19] = system: DU-145; test: Effective dose to show cytotoxicity against prostate cancer DU-145 cell line was determined; details: Homo sapiens, read-out: ED50 (the source's name)
[20] = system: NCI-H322M; test: Cytotoxicity exhibited by the compound for total growth inhibition of non-small cell lung cancer NCI-H322M cell line; details: Homo sapiens
[21] = system: COLO 205; test: Effective dose to show cytotoxicity against colon cancer COLO 205 cell line was determined; details: Homo sapiens, read-out: ED50 (the source's name)
[22] = system: NCI-H23; test: Effective dose to show cytotoxicity against non-small cell lung cancer NCI-H23 cell line was determined; details: Homo sapiens, read-out: ED50 (the source's name)
[23] = system: NCI-H322M; test: Concentration for 50% cell kill against non-small cell lung cancer NCI-H322M cell line was determined; details: Homo sapiens, read-out: LC50 (the source's name)
[24] = system: CCRF-CEM; test: Concentration for 50% cell kill against leukemia CCRF-CEM cell line was determined; details: Homo sapiens, read-out: LC50 (the source's name)
[25] = system: IGROV-1; test: Effective dose to show cytotoxicity against ovarian cancer IGROV 1 cell line was determined; details: Homo sapiens, read-out: ED50 (the source's name)
[26] = system: OVCAR-3; test: Cytotoxicity exhibited by the compound for total growth inhibition of ovarian cancer OVCAR-3 cell line; details: Homo sapiens
[27] = system: HCT-116; test: Concentration for 50% cell kill against colon cancer HCT116 cell line was determined; details: Homo sapiens, read-out: LC50 (the source's name)
[28] = system: CCRF-CEM; test: Cytotoxicity exhibited by the compound for total growth inhibition of leukemia CCRF-CEM cell line; details: Homo sapiens
[29] = system: NCI-H522; test: Cytotoxicity exhibited by the compound for total growth inhibition of non-small cell lung cancer NCI-H522 cell line; details: Homo sapiens
[30] = system: OVCAR-8; test: Effective dose to show cytotoxicity against ovarian cancer OVCAR-8 cell line was determined; details: Homo sapiens, read-out: ED50 (the source's name)
[31] = system: OVCAR-8; test: Concentration for 50% cell kill against ovarian cancerOVCAR-8 cell line was determined; details: Homo sapiens, read-out: LC50 (the source's name)
[32] = system: NCI-H23; test: Concentration for 50% cell kill against non-small cell lung cancer NCI-H23 cell line was determined; details: Homo sapiens, read-out: LC50 (the source's name)
[33] = system: LOX IMVI; test: Effective dose to show cytotoxicity against melanomaLOX IMVI cell line was determined; details: Homo sapiens, read-out: ED50 (the source's name)
[34] = system: PC-3; test: The compound was evaluated for cytotoxicity against PC-3 prostate cancer cell line; details: Homo sapiens
[35] = system: LOX IMVI; test: Concentration for 50% cell kill against melanoma LOX IMVI cell line was determined; details: Homo sapiens, read-out: LC50 (the source's name)
[36] = system: SNB-19; test: Concentration for 50% cell kill against CNS cancer SNB-19 cell line was determined; details: Homo sapiens, read-out: LC50 (the source's name)
[37] = system: NCI-H522; test: Concentration for 50% cell kill against non-small cell lung cancer NCI-H522 cell line was determined; details: Homo sapiens, read-out: LC50 (the source's name)
[38] = system: MOLT-4; test: Concentration for 50% cell kill against leukemia MOLT-4 cell line was determined; details: Homo sapiens, read-out: LC50 (the source's name)
[39] = system: T47D; test: Effective dose to show cytotoxicity against breast cancer T-47D cell line was determined; details: Homo sapiens, read-out: ED50 (the source's name)
[40] = system: HCT-116; test: The compound was evaluated for cytotoxicity against HCT116 colon cancer cell line; details: Homo sapiens
[41] = system: MOLT-4; test: The compound was evaluated for cytotoxicity against MOLT-4 leukemia cell line; details: Homo sapiens
[42] = system: MDA-MB-453; test: Concentration for 50% cell kill against breast cancer MDA-MB-435 cell line was determined; details: Homo sapiens, read-out: LC50 (the source's name)
[43] = system: RPMI-8226; test: Cytotoxicity exhibited by the compound for total growth inhibition of leukemia RPMI-8226 cell line; details: Homo sapiens
[44] = system: Malme-3M; test: Cytotoxicity exhibited by the compound for total growth inhibition of melanoma MALME-3M cell line; details: Homo sapiens
[45] = system: KM12; test: Cytotoxicity exhibited by the compound for total growth inhibition of colon cancer KM-12 cell line; details: Homo sapiens
[46] = system: OVCAR-8; test: Cytotoxicity exhibited by the compound for total growth inhibition of ovarian cancer OVCAR-8 cell line; details: Homo sapiens
[47] = system: T47D; test: Concentration for 50% cell kill against breast cancer T-47D cell line was determined; details: Homo sapiens, read-out: LC50 (the source's name)

Cc1c2ccncc2c(C)c2c1[nH]c1ccc(CO)cc12
TGI [1]: 110 nM | GI50 [2]: 280 nM | TGI [3]: 40 nM | GI50 [4]: 370 nM | GI50 [5]: 620 nM | pEC50 [6]: 5.79 | CC50 [7]: 52600 nM | pEC50 [8]: 6.55 | pEC50 [9]: 7.70 | pEC50 [10]: 7.22 | CC50 [11]: 5570 nM | CC50 [12]: 900 nM | GI50 [13]: 180 nM | pEC50 [14]: 6.19 | pEC50 [15]: 6.46 | TGI [16]: 3650 nM | TGI [17]: 11900 nM | TGI [18]: 11500 nM | pEC50 [19]: 5.89 | TGI [20]: 11500 nM | pEC50 [21]: 6.62 | pEC50 [22]: 6.17 | CC50 [23]: 35300 nM | CC50 [24]: > 100000 nM | pEC50 [25]: 6.74 | TGI [26]: 52100 nM | CC50 [27]: > 100000 nM | TGI [28]: 1010 nM | TGI [29]: 2950 nM | pEC50 [30]: 6.38 | CC50 [31]: 55200 nM | CC50 [32]: 79000 nM | pEC50 [33]: 6.43 | GI50 [34]: 450 nM | CC50 [35]: > 100000 nM | CC50 [36]: 56200 nM | CC50 [37]: > 100000 nM | CC50 [38]: 4090 nM | pEC50 [39]: 5.85 | GI50 [40]: 50 nM | GI50 [41]: 10 nM | CC50 [42]: 6020 nM | TGI [43]: 220 nM | TGI [44]: 7350 nM | TGI [45]: 1520 nM | TGI [46]: 11300 nM | CC50 [47]: 78200 nM
